Legend:
ECHOG Barnyardgrass [1] = assay: Preemergence herbicidal evaluation, ECHOG; type: in vivo, Echinochloa crus-galli, (L.) Beau; design: scale not given here; settings: preemergence
In short: (§1)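 First, seed is blended with potting soil and sown over roughly an inch of soil per cup. Next, the surface is sprayed with an aqueous acetone solution delivering about 0.013–0.800 kg/ha. Finally, cups are grown in the greenhouse and rated after 4–5 weeks.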

ECHOG Barnyardgrass [2] = assay: Postemergence herbicidal evaluation, ECHOG; type: in vivo, Echinochloa crus-galli, (L.) Beau; design: scale not given here; settings: postemergence spray, rated about two-three weeks after treatment
In short: (§2)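 Postemergence spray, 40 psi nozzle, on ~2-week seedlings. Carrier: acetone/water 80/20, 1.0% methylated seed oil; dose ~0.006–0.400 kg/ha. Scored visually at 2–3 weeks.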

ORYSAT Rice, Tebonnet [3] = assay: Preemergence herbicidal evaluation, ORYSAT; type: in vivo, Oryza sativa, (L.); design: scale not given here; settings: preemergence
In short: as §1

ZEAMX Corn, Field [4] = assay: Postemergence herbicidal evaluation, ZEAMX; type: in vivo, Zea mays, L. (Sammel-Bezeichnung); design: scale not given here; settings: postemergence spray, rated about two-three weeks after treatment
In short: as §2

[5] = tested on: IPOHE Morningglory, Ivyleaf; assay: Postemergence herbicidal evaluation, IPOHE; type: in vivo, Ipomoea hederacea, (L.) Jacq.; design: scale not given here; settings: postemergence spray, rated about two-three weeks after treatment
In short: as §2

GALAP Galium [6] = assay: Postemergence herbicidal evaluation, GALAP; type: in vivo, Galium aparine; design: scale not given here; settings: postemergence spray, rated about two-three weeks after treatment
In short: as §2

ZEAMX Corn, Field [7] = assay: Preemergence herbicidal evaluation, ZEAMX; type: in vivo, Zea mays, L. (Sammel-Bezeichnung); design: scale not given here; settings: preemergence
In short: as §1

[8] = tested on: TRZAWR Wheat, Winter, cv Riband; assay: Postemergence herbicidal evaluation, TRZAWR; type: in vivo, Triticum aestivum; design: scale not given here; settings: postemergence spray, rated about two-three weeks after treatment
In short: as §2

GLXMAW Soybean, Williams [9] = assay: Postemergence herbicidal evaluation, GLXMAW; type: in vivo, Glycine max, (L.) Merr. cv Williams; design: scale not given here; settings: postemergence spray, rated about two-three weeks after treatment
In short: as §2

GALAP Galium [10] = assay: Preemergence herbicidal evaluation, GALAP; type: in vivo, Galium aparine; design: scale not given here; settings: preemergence
In short: as §1

CASOB Sicklepod [11] = assay: Postemergence herbicidal evaluation, CASOB; type: in vivo, Cassia obtusifolia, L.; design: scale not given here; settings: postemergence spray, rated about two-three weeks after treatment
In short: as §2

ORYSAT Rice, Tebonnet [12] = assay: Postemergence herbicidal evaluation, ORYSAT; type: in vivo, Oryza sativa, (L.); design: scale not given here; settings: postemergence spray, rated about two-three weeks after treatment
In short: as §2

SETVI Foxtail, Green [13] = assay: Preemergence herbicidal evaluation, SETVI; type: in vivo, Setaria viridis, (L.) Beau; design: scale not given here; settings: preemergence
In short: as §1

[14] = tested on: IPOHE Morningglory, Ivyleaf; assay: Preemergence herbicidal evaluation, IPOHE; type: in vivo, Ipomoea hederacea, (L.) Jacq.; design: scale not given here; settings: preemergence
In short: as §1

ABUTH Velvetleaf [15] = assay: Postemergence herbicidal evaluation, ABUTH; type: in vivo, Abutilon theophrasti, Medic.; design: scale not given here; settings: postemergence spray, rated about two-three weeks after treatment
In short: as §2

[16] = tested on: CHEAL Lambsquarters, Common; assay: Postemergence herbicidal evaluation, CHEAL; type: in vivo, Chenopodium album, L.; design: scale not given here; settings: postemergence spray, rated about two-three weeks after treatment
In short: as §2

GLXMAW Soybean, Williams [17] = assay: Preemergence herbicidal evaluation, GLXMAW; type: in vivo, Glycine max, (L.) Merr. cv Williams; design: scale not given here; settings: preemergence
In short: as §1

AMBEL Ragweed, Common [18] = assay: Preemergence herbicidal evaluation, AMBEL; type: in vivo, Ambrosia artemisifolia, L.; design: scale not given here; settings: preemergence
In short: as §1

CASOB Sicklepod [19] = assay: Preemergence herbicidal evaluation, CASOB; type: in vivo, Cassia obtusifolia, L.; design: scale not given here; settings: preemergence
In short: as §1

[20] = tested on: CHEAL Lambsquarters, Common; assay: Preemergence herbicidal evaluation, CHEAL; type: in vivo, Chenopodium album, L.; design: scale not given here; settings: preemergence
In short: as §1

ABUTH Velvetleaf [21] = assay: Preemergence herbicidal evaluation, ABUTH; type: in vivo, Abutilon theophrasti, Medic.; design: scale not given here; settings: preemergence
In short: as §1

[22] = tested on: TRZAWR Wheat, Winter, cv Riband; assay: Preemergence herbicidal evaluation, TRZAWR; type: in vivo, Triticum aestivum; design: scale not given here; settings: preemergence
In short: as §1

AMBEL Ragweed, Common [23] = assay: Postemergence herbicidal evaluation, AMBEL; type: in vivo, Ambrosia artemisifolia, L.; design: scale not given here; settings: postemergence spray, rated about two-three weeks after treatment
In short: as §2

SETVI Foxtail, Green [24] = assay: Postemergence herbicidal evaluation, SETVI; type: in vivo, Setaria viridis, (L.) Beau; design: scale not given here; settings: postemergence spray, rated about two-three weeks after treatment
In short: as §2

melting point: 175 to 181 °C
SMILES: COc1ccc(C)cc1-n1nnc2cc(F)c(-n3c(=O)cc(C(F)(F)F)n(C)c3=O)cc21 [Example 18, 3-[5-fluoro-1-(2-methoxy-5-methylphenyl)-1H-1,2,3-benzotriazol-6-yl]-1-methyl-6-(trifluoromethyl)-2,4(1H,3H)-pyrimidinedione]
ECHCG herbicidal rating (ECHOG Barnyardgrass [1]; rate 0.016 kg/ha): 6.0
ECHCG herbicidal rating (ECHOG Barnyardgrass [1]; rate 0.032 kg/ha): 8.0
ECHCG herbicidal rating (ECHOG Barnyardgrass [1]; rate 0.062 kg/ha): 9.0
ECHCG herbicidal rating (ECHOG Barnyardgrass [1]; rate 0.125 kg/ha): 9.0
Postemergence herbicidal rating ECHCG (ECHOG Barnyardgrass [2]; 0.008 kg/ha): 0.0
Postemergence herbicidal rating ECHCG (ECHOG Barnyardgrass [2]; 0.016 kg/ha): 2.0
Postemergence herbicidal rating ECHCG (ECHOG Barnyardgrass [2]; 0.032 kg/ha): 2.0
Postemergence herbicidal rating ECHCG (ECHOG Barnyardgrass [2]; 0.062 kg/ha): 4.0
ORYSAT herbicidal rating (ORYSAT Rice, Tebonnet [3]; rate 0.016 kg/ha): 3.0
ORYSAT herbicidal rating (ORYSAT Rice, Tebonnet [3]; rate 0.032 kg/ha): 6.0
ORYSAT herbicidal rating (ORYSAT Rice, Tebonnet [3]; rate 0.062 kg/ha): 6.0
ORYSAT herbicidal rating (ORYSAT Rice, Tebonnet [3]; rate 0.125 kg/ha): 6.0
Postemergence herbicidal rating ZEAMX (ZEAMX Corn, Field [4]; 0.008 kg/ha): 4.5
Postemergence herbicidal rating ZEAMX (ZEAMX Corn, Field [4]; 0.016 kg/ha): 5.5
Postemergence herbicidal rating ZEAMX (ZEAMX Corn, Field [4]; 0.032 kg/ha): 6.0
Postemergence herbicidal rating ZEAMX (ZEAMX Corn, Field [4]; 0.062 kg/ha): 6.0
Postemergence herbicidal rating IPOHE ([5]; 0.008 kg/ha): 9.0
Postemergence herbicidal rating IPOHE ([5]; 0.016 kg/ha): 9.0
Postemergence herbicidal rating IPOHE ([5]; 0.032 kg/ha): 9.0
Postemergence herbicidal rating IPOHE ([5]; 0.062 kg/ha): 9.0
Postemergence herbicidal rating GALAP (GALAP Galium [6]; 0.008 kg/ha): 1.0
Postemergence herbicidal rating GALAP (GALAP Galium [6]; 0.016 kg/ha): 3.0
Postemergence herbicidal rating GALAP (GALAP Galium [6]; 0.032 kg/ha): 5.0
Postemergence herbicidal rating GALAP (GALAP Galium [6]; 0.062 kg/ha): 5.0
ZEAMX herbicidal rating (ZEAMX Corn, Field [7]; rate 0.016 kg/ha): 5.0
ZEAMX herbicidal rating (ZEAMX Corn, Field [7]; rate 0.032 kg/ha): 5.0
ZEAMX herbicidal rating (ZEAMX Corn, Field [7]; rate 0.062 kg/ha): 7.0
ZEAMX herbicidal rating (ZEAMX Corn, Field [7]; rate 0.125 kg/ha): 8.5
Postemergence herbicidal rating TRZAWR ([8]; 0.008 kg/ha): 3.5
Postemergence herbicidal rating TRZAWR ([8]; 0.016 kg/ha): 4.5
Postemergence herbicidal rating TRZAWR ([8]; 0.032 kg/ha): 5.5
Postemergence herbicidal rating TRZAWR ([8]; 0.062 kg/ha): 4.5
Postemergence herbicidal rating GLXMAW (GLXMAW Soybean, Williams [9]; 0.008 kg/ha): 4.5
Postemergence herbicidal rating GLXMAW (GLXMAW Soybean, Williams [9]; 0.016 kg/ha): 4.5
Postemergence herbicidal rating GLXMAW (GLXMAW Soybean, Williams [9]; 0.032 kg/ha): 6.5
Postemergence herbicidal rating GLXMAW (GLXMAW Soybean, Williams [9]; 0.062 kg/ha): 6.0
GALAP herbicidal rating (GALAP Galium [10]; rate 0.032 kg/ha): 1.0
GALAP herbicidal rating (GALAP Galium [10]; rate 0.062 kg/ha): 5.0
GALAP herbicidal rating (GALAP Galium [10]; rate 0.125 kg/ha): 9.0
Postemergence herbicidal rating CASOB (CASOB Sicklepod [11]; 0.008 kg/ha): 0.0
Postemergence herbicidal rating CASOB (CASOB Sicklepod [11]; 0.016 kg/ha): 7.0
Postemergence herbicidal rating CASOB (CASOB Sicklepod [11]; 0.032 kg/ha): 6.0
Postemergence herbicidal rating CASOB (CASOB Sicklepod [11]; 0.062 kg/ha): 7.0
Postemergence herbicidal rating ORYSAT (ORYSAT Rice, Tebonnet [12]; 0.008 kg/ha): 3.5
Postemergence herbicidal rating ORYSAT (ORYSAT Rice, Tebonnet [12]; 0.016 kg/ha): 4.0
Postemergence herbicidal rating ORYSAT (ORYSAT Rice, Tebonnet [12]; 0.032 kg/ha): 5.5
Postemergence herbicidal rating ORYSAT (ORYSAT Rice, Tebonnet [12]; 0.062 kg/ha): 5.5
SETVI herbicidal rating (SETVI Foxtail, Green [13]; rate 0.016 kg/ha): 9.0
SETVI herbicidal rating (SETVI Foxtail, Green [13]; rate 0.032 kg/ha): 9.0
SETVI herbicidal rating (SETVI Foxtail, Green [13]; rate 0.062 kg/ha): 9.0
SETVI herbicidal rating (SETVI Foxtail, Green [13]; rate 0.125 kg/ha): 9.0
IPOHE herbicidal rating ([14]; rate 0.016 kg/ha): 7.5
IPOHE herbicidal rating ([14]; rate 0.032 kg/ha): 9.0
IPOHE herbicidal rating ([14]; rate 0.062 kg/ha): 8.0
IPOHE herbicidal rating ([14]; rate 0.125 kg/ha): 9.0
Postemergence herbicidal rating ABUTH (ABUTH Velvetleaf [15]; 0.008 kg/ha): 9.0
Postemergence herbicidal rating ABUTH (ABUTH Velvetleaf [15]; 0.016 kg/ha): 9.0
Postemergence herbicidal rating ABUTH (ABUTH Velvetleaf [15]; 0.032 kg/ha): 9.0
Postemergence herbicidal rating ABUTH (ABUTH Velvetleaf [15]; 0.062 kg/ha): 9.0
Postemergence herbicidal rating CHEAL ([16]; 0.008 kg/ha): 1.0
Postemergence herbicidal rating CHEAL ([16]; 0.016 kg/ha): 7.0
Postemergence herbicidal rating CHEAL ([16]; 0.032 kg/ha): 9.0
Postemergence herbicidal rating CHEAL ([16]; 0.062 kg/ha): 9.0
GLXMAW herbicidal rating (GLXMAW Soybean, Williams [17]; rate 0.016 kg/ha): 3.0
GLXMAW herbicidal rating (GLXMAW Soybean, Williams [17]; rate 0.032 kg/ha): 4.5
GLXMAW herbicidal rating (GLXMAW Soybean, Williams [17]; rate 0.062 kg/ha): 7.5
GLXMAW herbicidal rating (GLXMAW Soybean, Williams [17]; rate 0.125 kg/ha): 9.0
AMBEL herbicidal rating (AMBEL Ragweed, Common [18]; rate 0.016 kg/ha): 4.0
AMBEL herbicidal rating (AMBEL Ragweed, Common [18]; rate 0.032 kg/ha): 6.0
AMBEL herbicidal rating (AMBEL Ragweed, Common [18]; rate 0.062 kg/ha): 9.0
AMBEL herbicidal rating (AMBEL Ragweed, Common [18]; rate 0.125 kg/ha): 8.0
CASOB herbicidal rating (CASOB Sicklepod [19]; rate 0.016 kg/ha): 2.5
CASOB herbicidal rating (CASOB Sicklepod [19]; rate 0.032 kg/ha): 0.0
CASOB herbicidal rating (CASOB Sicklepod [19]; rate 0.062 kg/ha): 0.5
CASOB herbicidal rating (CASOB Sicklepod [19]; rate 0.125 kg/ha): 5.0
CHEAL herbicidal rating ([20]; rate 0.016 kg/ha): 9.0
CHEAL herbicidal rating ([20]; rate 0.032 kg/ha): 9.0
CHEAL herbicidal rating ([20]; rate 0.062 kg/ha): 9.0
CHEAL herbicidal rating ([20]; rate 0.125 kg/ha): 9.0
ABUTH herbicidal rating (ABUTH Velvetleaf [21]; rate 0.016 kg/ha): 6.0
ABUTH herbicidal rating (ABUTH Velvetleaf [21]; rate 0.032 kg/ha): 9.0
ABUTH herbicidal rating (ABUTH Velvetleaf [21]; rate 0.062 kg/ha): 9.0
ABUTH herbicidal rating (ABUTH Velvetleaf [21]; rate 0.125 kg/ha): 9.0
TRZAWR herbicidal rating ([22]; rate 0.016 kg/ha): 2.0
TRZAWR herbicidal rating ([22]; rate 0.032 kg/ha): 3.0
TRZAWR herbicidal rating ([22]; rate 0.062 kg/ha): 6.0
TRZAWR herbicidal rating ([22]; rate 0.125 kg/ha): 7.0
Postemergence herbicidal rating AMBEL (AMBEL Ragweed, Common [23]; 0.008 kg/ha): 1.0
Postemergence herbicidal rating AMBEL (AMBEL Ragweed, Common [23]; 0.016 kg/ha): 6.0
Postemergence herbicidal rating AMBEL (AMBEL Ragweed, Common [23]; 0.032 kg/ha): 6.0
Postemergence herbicidal rating AMBEL (AMBEL Ragweed, Common [23]; 0.062 kg/ha): 9.0
Postemergence herbicidal rating SETVI (SETVI Foxtail, Green [24]; 0.008 kg/ha): 0.0
Postemergence herbicidal rating SETVI (SETVI Foxtail, Green [24]; 0.016 kg/ha): 5.0
Postemergence herbicidal rating SETVI (SETVI Foxtail, Green [24]; 0.032 kg/ha): 9.0
Postemergence herbicidal rating SETVI (SETVI Foxtail, Green [24]; 0.062 kg/ha): 9.0
